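Following 48 hours of exposure in 96-well plates, responses at five concentrations were used to interpolate endpoints linearly. GI50 is the concentration that inhibits growth by half.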 The source made the active and inactive calls. Cut-off read from the data, not from the text of the source: active = GI50 up to about 1.1 µM and inactive = higher.
Assays:
Assay in all cases: NCI tumour cell line growth inhibition, 48 h
UACC-257 = test system: UACC-257
MOLT-4 = test system: MOLT-4
SF-295 = test system: SF-295
SNB-75 = test system: SNB-75
TK-10 = test system: TK-10
ACHN = test system: ACHN
SF-539 = test system: SF-539
HCT-116 = test system: HCT-116
OVCAR-4 = test system: OVCAR-4
SK-MEL-5 = test system: SK-MEL-5
HOP-92 = test system: HOP-92
KM12 = test system: KM12
SR = test system: SR
SW-620 = test system: SW-620
HT-29 = test system: HT-29
OVCAR-5 = test system: OVCAR-5
NCI-H522 = test system: NCI-H522
A549 = test system: A549
COLO 205 = test system: COLO 205
CCRF-CEM = test system: CCRF-CEM

Structure (SMILES) | GI50 (UACC-257) | GI50 (MOLT-4) | GI50 (SF-295) | GI50 (SNB-75) | GI50 (TK-10) | GI50 (ACHN) | GI50 (SF-539) | GI50 (HCT-116) | GI50 (OVCAR-4) | GI50 (SK-MEL-5) | GI50 (HOP-92) | GI50 (KM12) | GI50 (SR) | GI50 (SW-620) | GI50 (HT-29) | GI50 (OVCAR-5) | GI50 (NCI-H522) | GI50 (A549) | GI50 (COLO 205) | GI50 (CCRF-CEM)
C[N+](C)(C)CCN[N+]1(C)CCCc2ccccc21 (configuration not stated) | > 100 µM (inactive) | 31 µM (inactive) | > 100 µM (inactive) | > 100 µM (inactive) | > 100 µM (inactive) | > 100 µM (inactive) | 4.92 µM (inactive) | 52 µM (inactive) | > 100 µM (inactive) | > 100 µM (inactive) | > 100 µM (inactive) | > 100 µM (inactive) | 50.2 µM (inactive) | 38.5 µM (inactive) | > 100 µM (inactive) | > 100 µM (inactive) | 18.5 µM (inactive) | > 100 µM (inactive) | 36.2 µM (inactive) | –
O=C(CN1C(=O)c2ccccc2C1=O)C(O)CN1C(=O)c2ccccc2C1=O (configuration not stated) | > 100 µM (inactive) | > 100 µM (inactive) | 31.3 µM (inactive) | 16 µM (inactive) | 46.1 µM (inactive) | 20 µM (inactive) | 33.2 µM (inactive) | > 100 µM (inactive) | 98.4 µM (inactive) | > 100 µM (inactive) | 32.4 µM (inactive) | 84.1 µM (inactive) | > 100 µM (inactive) | > 100 µM (inactive) | > 100 µM (inactive) | > 100 µM (inactive) | > 100 µM (inactive) | > 100 µM (inactive) | > 100 µM (inactive) | –
NC(=O)N/N=C1\CCCCc2ccccc21 | > 10 µM (inactive) | > 10 µM (inactive) | – | – | > 10 µM (inactive) | > 10 µM (inactive) | – | > 10 µM (inactive) | > 10 µM (inactive) | – | > 10 µM (inactive) | > 10 µM (inactive) | > 10 µM (inactive) | > 10 µM (inactive) | > 10 µM (inactive) | > 10 µM (inactive) | > 10 µM (inactive) | > 10 µM (inactive) | > 10 µM (inactive) | > 10 µM (inactive)
CC(C)(C)/C(=N\Nc1nc2ccccc2[nH]1)c1ccccn1 | > 100 µM (inactive) | 59.6 µM (inactive) | – | – | 24.7 µM (inactive) | 81.3 µM (inactive) | > 100 µM (inactive) | 22.8 µM (inactive) | 53.7 µM (inactive) | 87.9 µM (inactive) | 24.9 µM (inactive) | 86.5 µM (inactive) | > 100 µM (inactive) | 65.2 µM (inactive) | 26.2 µM (inactive) | – | 33.9 µM (inactive) | > 100 µM (inactive) | 33 µM (inactive) | 46.1 µM (inactive)
Clc1cc(Cl)c2cc3cccc[n+]3cc2c1Cl | 15.2 µM (inactive) | 14 µM (inactive) | 18 µM (inactive) | 12 µM (inactive) | 18.7 µM (inactive) | 16.3 µM (inactive) | 18.3 µM (inactive) | 6.44 µM (inactive) | 15.5 µM (inactive) | 16 µM (inactive) | 5.87 µM (inactive) | > 10 µM (inactive) | 12.2 µM (inactive) | 17.6 µM (inactive) | 15.5 µM (inactive) | 19.2 µM (inactive) | – | 17.2 µM (inactive) | 14.8 µM (inactive) | 12.1 µM (inactive)
O=CNNC(=O)Nc1cccc2ccccc12 | > 100 µM (inactive) | > 100 µM (inactive) | > 100 µM (inactive) | > 100 µM (inactive) | > 100 µM (inactive) | > 100 µM (inactive) | > 100 µM (inactive) | > 100 µM (inactive) | > 100 µM (inactive) | > 100 µM (inactive) | > 10 µM (inactive) | > 100 µM (inactive) | > 100 µM (inactive) | > 100 µM (inactive) | > 100 µM (inactive) | > 100 µM (inactive) | – | > 100 µM (inactive) | > 100 µM (inactive) | > 100 µM (inactive)
CS(=O)(=O)CCC1CCC(=O)O1 (configuration not stated) | > 100 µM (inactive) | 22 µM (inactive) | 92.9 µM (inactive) | 97.9 µM (inactive) | > 100 µM (inactive) | 31.5 µM (inactive) | > 100 µM (inactive) | 48.6 µM (inactive) | – | > 100 µM (inactive) | > 100 µM (inactive) | > 100 µM (inactive) | 85.1 µM (inactive) | > 100 µM (inactive) | > 100 µM (inactive) | > 100 µM (inactive) | 31.2 µM (inactive) | 43.6 µM (inactive) | – | > 10 µM (inactive)
CN(C)CC/[N+]([O-])=C(/c1ccccc1)C12CC3CC(CC(C3)C1)C2 | 15.9 µM (inactive) | 16.7 µM (inactive) | 14 µM (inactive) | 11.9 µM (inactive) | 16.7 µM (inactive) | 16.3 µM (inactive) | 16.5 µM (inactive) | 17.9 µM (inactive) | – | 17.5 µM (inactive) | 14.1 µM (inactive) | 18.3 µM (inactive) | 16.2 µM (inactive) | – | 11 µM (inactive) | 17.7 µM (inactive) | 15.1 µM (inactive) | 18.4 µM (inactive) | 14 µM (inactive) | 15.8 µM (inactive)
CCc1cc2c(oc3cc(C)ccc32)c(=O)n1C | > 10 µM (inactive) | > 10 µM (inactive) | > 10 µM (inactive) | > 10 µM (inactive) | > 10 µM (inactive) | > 10 µM (inactive) | > 10 µM (inactive) | > 10 µM (inactive) | > 10 µM (inactive) | – | > 10 µM (inactive) | > 10 µM (inactive) | > 10 µM (inactive) | > 10 µM (inactive) | > 10 µM (inactive) | > 10 µM (inactive) | > 10 µM (inactive) | > 10 µM (inactive) | – | > 10 µM (inactive)
CN(/C(=N\O)c1ccccc1)c1ccccc1 | 38.6 µM (inactive) | – | 21 µM (inactive) | 13.5 µM (inactive) | – | – | 22.6 µM (inactive) | 46.7 µM (inactive) | 33.7 µM (inactive) | – | 5.12 µM (inactive) | 36.3 µM (inactive) | 25 µM (inactive) | 32.2 µM (inactive) | 30.5 µM (inactive) | 88.9 µM (inactive) | 18 µM (inactive) | 47 µM (inactive) | 95.9 µM (inactive) | –
COc1ncnc2c1cnn2Cc1cn(COCC(O)CO)nn1 (configuration not stated) | > 100 µM (inactive) | > 100 µM (inactive) | > 100 µM (inactive) | – | > 100 µM (inactive) | > 100 µM (inactive) | > 100 µM (inactive) | > 100 µM (inactive) | > 100 µM (inactive) | > 100 µM (inactive) | 22.8 µM (inactive) | > 100 µM (inactive) | > 100 µM (inactive) | > 100 µM (inactive) | > 100 µM (inactive) | > 100 µM (inactive) | 10.8 µM (inactive) | > 100 µM (inactive) | > 100 µM (inactive) | > 100 µM (inactive)
COc1cc(OC)cc(Oc2nc3ccccc3nc2C(=O)O)c1 | > 100 µM (inactive) | > 100 µM (inactive) | > 100 µM (inactive) | > 100 µM (inactive) | > 100 µM (inactive) | > 100 µM (inactive) | – | > 100 µM (inactive) | 0.6 µM (active) | > 100 µM (inactive) | > 100 µM (inactive) | > 100 µM (inactive) | > 100 µM (inactive) | > 100 µM (inactive) | > 100 µM (inactive) | > 100 µM (inactive) | > 100 µM (inactive) | > 100 µM (inactive) | > 100 µM (inactive) | > 100 µM (inactive)
CCOC(=O)C1C(=O)CC(C)(O)C(C(=O)OCC)C1c1ccc(N(C)C)cc1 (configuration not stated) | > 100 µM (inactive) | > 100 µM (inactive) | > 100 µM (inactive) | > 100 µM (inactive) | > 100 µM (inactive) | > 100 µM (inactive) | – | > 100 µM (inactive) | > 100 µM (inactive) | > 100 µM (inactive) | > 100 µM (inactive) | > 100 µM (inactive) | > 100 µM (inactive) | > 100 µM (inactive) | > 100 µM (inactive) | > 100 µM (inactive) | > 100 µM (inactive) | > 100 µM (inactive) | > 100 µM (inactive) | > 100 µM (inactive)
COc1ccc(N2C(=O)/C(=C\c3cccc(Oc4ccccc4)c3)S(=O)(=O)C2c2ccccc2)cc1 (configuration not stated) | 26.1 µM (inactive) | 0.146 µM (active) | – | – | 37.1 µM (inactive) | 98.9 µM (inactive) | – | 20.4 µM (inactive) | 28.6 µM (inactive) | 16.3 µM (inactive) | 42.2 µM (inactive) | 22.5 µM (inactive) | 3.7 µM (inactive) | 60.8 µM (inactive) | – | > 100 µM (inactive) | 12.3 µM (inactive) | 31.5 µM (inactive) | 64.1 µM (inactive) | 73.6 µM (inactive)
CCC1c2[nH]c3ccccc3c2C[C@H]2C(=O)NC(Cc3ccccc3)C(=O)N12 (some centres not stated) | 18 µM (inactive) | 21.4 µM (inactive) | 24.4 µM (inactive) | – | 23.7 µM (inactive) | 30.5 µM (inactive) | – | 24.7 µM (inactive) | 33.6 µM (inactive) | 19.9 µM (inactive) | 34.2 µM (inactive) | 24.8 µM (inactive) | 21.2 µM (inactive) | 35.6 µM (inactive) | 23.5 µM (inactive) | 25.2 µM (inactive) | 22.9 µM (inactive) | 30.1 µM (inactive) | 20.6 µM (inactive) | –
Cc1cc(C)c2c(O)cc(-c3cccc(Cl)c3)nc2n1 | 1.95 µM (inactive) | 0.161 µM (active) | 0.0492 µM (active) | 0.166 µM (active) | > 41.1 µM (inactive) | 2.12 µM (inactive) | 0.119 µM (active) | 0.0791 µM (active) | 77.3 µM (inactive) | 0.0518 µM (active) | 21.9 µM (inactive) | 0.0933 µM (active) | 0.0855 µM (active) | 0.0578 µM (active) | 0.122 µM (active) | – | 0.0356 µM (active) | 0.227 µM (active) | 0.175 µM (active) | 0.229 µM (active)

Source: ChEMBL document CHEMBL1201862, “PubChem BioAssay data set” (2004)
